These results are taken from patent publication US7238377B2, “Use of an oil of the gourd family for inhibiting 5 alpha-reductase activity” (Laboratoires Expanscience, priority 2001, dated 2007).

The subject of this assay is 5α-reductase. Description: In vitro evaluation of 5α-reductase activity: conversion of testosterone to 5α-dihydrotestosterone in normal human dermal fibroblast cultures. Type of assay: cell-based. Conditions: finasteride 30 ng/ml. The source says: In vitro evaluation of the 5α-reductase activity of the balsam pear oil on the conversion of testosterone to 5α-dihydrotestosterone in normal human dermal fibroblast cultures
It is proposed to evaluate the effect of the solid oil (butter) extracted from seeds of balsam pear (Momordica charantia), extracted with solvent (hexane), on 5α-reductase activity. An in vitro model of normal human dermal fibroblast cultures was selected.
The balsam pear oil was provided by the Laboratoires Pharmascience and was stored at +4° C. until the time it was used. The effects of the test product were compared with those obtained in the presence of finasteride, used as reference product (finasteride, principle active agent of the tablets CHIBRO-PROSCAR: MERCK SHARP & DOHME CHIBRET).
The radioactive testosterone (labeled with tritium at positions 1, 2, 6 and 7, specific activity 95 Ci/mmol) was provided by AMERSHAM, the nonradiolabeled testosterone was provided by SIGMA.
The fibroblast culture medium (FCM) consisted of MEM/M199 (3:1, v/v) supplemented with penicillin (50 IU/ml), streptomycin ([…]), sodium bicarbonate (0.2%, w/v) and FCS (10%, v/v).
The test system consisted of normal human dermal fibroblasts cultured in monolayer. The fibroblasts were isolated from a residue of an abdominoplasty carried out on a person (subject No. i0006). The cells were used at the third passage; they were cultured, until the monolayers reached confluency, in the FCM medium at 37° C. in a humid atmosphere containing 5% CO2.
The fibroblast incubation medium (FIM) consisted of FCM supplemented with tritiated testosterone (1.6×10^−7 M, i.e. 6.32 μCi/ml) and nonradiolabeled testosterone (3.84×10^−6 M).
The finasteride was extracted from the tablets by grinding, stirring in DMSO, centrifugation, and then collection of the supernatant (theoretical concentration of this solution: 1 mg/ml of finasteride), which was tested at 30 ng/ml. […]
The migration solvent was a mixture of dichloromethane and ether (7:3, v/v). At the end of migration, the silica plates were read using a BERTHOLD radioactivity scanner.
Comparison of the Rf (relative retention factor) values determined for the standards with those obtained for the various radioactive metabolites made it possible to identify these metabolites.
The metabolization of the testosterone to 5α-dihydro-testosterone under the various experimental conditions was calculated; the results (areas of the 5α-dihydro-testosterone peaks counted by the BERTHOLD scanner) are expressed in pmol of 5α-DHT formed per […]. They have also been expressed as percentage of the 5α-reductase activity present in the “control cells” group. […]

Several values for one entry are separate records, joined by “and”; a condition that tells them apart may be missing. Equal entries are not always repeated. Marks after values point to notes of the source that are not given here.

Consider `CC(C)(C)NC(=O)[C@H]1CC[C@H]2[C@@H]3CC[C@H]4NC(=O)C=C[C@]4(C)[C@H]3CC[C@]12C` [Finasteride, finasteride], for which the “pmol of 5α-DHT/μg of DNA (individual cultures)” value (2 h preincubation, 24 h incubation, triplicate values, control cells 2.68, 1.91, 1.56) is 0.76 pmol of 5α-DHT/μg of DNA and 0.48 pmol of 5α-DHT/μg of DNA and 0.62 pmol of 5α-DHT/μg of DNA. The “% control (5α-reductase activity)” value (24 h incubation, control cells = 100) is given as 30%. Further, the “pmol of 5α-DHT/μg of DNA, Mean” value (24 h incubation, control cells mean 2.05, p<0.05 vs control) is on record as 0.62** pmol of 5α-DHT/μg of DNA. The “inhibition of the 5α-reductase activity” value (p<0.05) is reported as 70%.
